Values of other authors, collected in patent publication US20230002726A1, “METHODS OF IN-OVO SCREENING OF ANTI-CANCER THERAPIES” (ICHILOV TECH LTD., priority 2020, published 2023).

Tested on: MSI-low tumors
Conditions: stated as known; cited from earlier work

Substance: Pembrolizumab [Keytruda]
- known effectiveness: ineffective
